# Patent publication US12252490B2, “Inhibiting deubiquitinase USP25 and USP28” (Valo Health, Inc., priority 2018, dated 2025)
# pIC50: −log10 of the molar value.
# Biological target: T1, USP28 (His-tagged USP28-FL-mammalian) (Homo sapiens, UniProt Q96RU2)
# T1 construct: Expression of USP28 (1-1077)-TEV-6*His (pTT5 vector) was carried out in Expi293f cells; made in house; host or cells: Expi293f cells (pTT5 vector)
# T1 sequence (Q96RU2 1-1077): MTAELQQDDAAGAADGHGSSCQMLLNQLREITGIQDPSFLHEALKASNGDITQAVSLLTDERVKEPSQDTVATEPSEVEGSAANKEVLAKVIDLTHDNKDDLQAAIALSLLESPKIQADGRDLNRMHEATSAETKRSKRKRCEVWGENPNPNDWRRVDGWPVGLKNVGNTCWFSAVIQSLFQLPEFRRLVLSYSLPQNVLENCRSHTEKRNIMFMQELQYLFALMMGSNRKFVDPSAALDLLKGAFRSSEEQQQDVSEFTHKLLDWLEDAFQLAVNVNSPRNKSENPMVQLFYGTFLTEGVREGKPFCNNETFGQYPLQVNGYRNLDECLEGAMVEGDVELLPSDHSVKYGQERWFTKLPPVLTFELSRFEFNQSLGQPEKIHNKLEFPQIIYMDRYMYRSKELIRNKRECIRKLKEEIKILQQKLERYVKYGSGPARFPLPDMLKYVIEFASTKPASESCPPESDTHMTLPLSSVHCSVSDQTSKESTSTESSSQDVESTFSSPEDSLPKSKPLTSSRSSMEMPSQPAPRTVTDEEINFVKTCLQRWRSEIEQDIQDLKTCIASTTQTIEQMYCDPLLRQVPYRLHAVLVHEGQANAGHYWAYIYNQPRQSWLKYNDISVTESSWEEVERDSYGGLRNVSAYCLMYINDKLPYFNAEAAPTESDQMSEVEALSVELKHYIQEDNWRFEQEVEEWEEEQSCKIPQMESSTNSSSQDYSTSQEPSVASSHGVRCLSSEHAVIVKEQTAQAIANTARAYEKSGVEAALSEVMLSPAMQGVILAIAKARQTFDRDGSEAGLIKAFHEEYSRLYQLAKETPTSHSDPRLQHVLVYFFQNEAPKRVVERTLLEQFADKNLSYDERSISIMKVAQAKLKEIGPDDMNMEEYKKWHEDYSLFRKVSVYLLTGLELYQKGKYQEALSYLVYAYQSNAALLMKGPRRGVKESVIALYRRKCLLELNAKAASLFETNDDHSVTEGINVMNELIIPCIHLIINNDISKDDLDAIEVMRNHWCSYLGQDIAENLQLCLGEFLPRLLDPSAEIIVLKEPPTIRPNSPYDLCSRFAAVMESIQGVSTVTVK
# Assay: Ubiquitin-Rhodamine 110 Assay for USP28 Activity, Example A-1(a)
# Assay type: biochemical
# Settings: USP28, 75 pM enzyme, 25 nM Ub-Rh110, 1536-well, 30 min preincubation; read-out: Assay A-1(a) (IC50 range)
# Protocol: The assay was performed in a final volume of 9 μL in assay buffer containing 20 mM Tris-HCl (pH 8.0, (1M Tris-HCl, pH 8.0 solution; Corning 46-031-CM)), 3 mM BME (2-Mercaptoethanol; Sigma 63689-25ML-F), 0.03% BGG (0.22 μM filtered, Sigma, G7516-25G), and 0.01% Triton X-100 (Sigma, T9284-10L). Nanoliter quantities of 10-point, 3-fold serial dilution in DMSO was pre-dispensed into 1536 assay plates (Corning, #3724BC) for a final test concentration of 25 μM to 1.3 nM, top to lowest dose, respectively. Enzyme USP28, construct His-tagged USP28-FL-mammalian, (protein expression and purification procedure described below). Concentration and incubation times were optimized for the maximal signal-to-background while maintaining initial velocity conditions at a fixed substrate concentration. The final concentration of the enzyme in the assay was 75 pM. Final substrate (Ub-Rh110; Ubiquitin-Rhodamine 110, UbiQ-126) concentration was 25 nM with [Ub-Rh110]<<Km. 3 μL of 2× enzyme was added to assay plates (pre-stamped with compound) preincubated with […] for 30 minutes and then 3 μL of 2×Ub-Rh110 was added to assay plates. Plates were incubated for 45 minutes at room temperature before addition of 3 μL of stop solution (final concentration of 10 mM citric acid (Sigma, 251275-500G)). Fluorescence was read on the Envision (Excitation at 485 nm and Emission at 535 nm; Perkin Elmer) or on the PheraSTAR (Excitation at 485 nm and Emission at 535 nm; BMG Labtech).
# Expression of USP28 (1-1077)-TEV-6*His (pTT5 vector) was carried out in Expi293f cells (sequence derived from uniprot ID: Q96RU2-1). Cells were re-suspended in lysis buffer B 50 mM Bicine, pH 8.0, 20 mM NaCl, 5% glycerol, 0.1% CHAPS, 5 mM β-ME, 1 mM PMSF, 1 μg/ml Leupeptin, 1 μg/ml Pepstatin) and lysed by sonication. Insoluble material was removed by centrifugation and the supernatant was loaded onto a Ni-NTA column (GE Healthcare) equilibrated with Ni Buffer A (50 mM Bicine, pH 8.0, 20 mM NaCl, 5% glycerol, 0.1% CHAPS, 5 mM β-ME.) and washed with Ni Buffer A+20 mM imidazole until A280 reached baseline. The protein was eluted with Ni Buffer B (50 mM Bicine, pH 8.0, 20 mM NaCl, 5% glycerol, 0.1% CHAPS, 5 mM β-ME, 300 mM imidazole.). The protein was further purified using a Superdex™ 200 10/300 GL column (GE Healthcare) equilibrated with 50 mM Bicine, pH 8.0, 20 mM NaCl, 5% glycerol, 0.1% CHAPS, 5 mM β-ME. The protein was concentrated to 2.5 mg ml^−1, flash-frozen in liquid N2 and stored at −80° C.
# For assay formats Examples A-1a, A-1b, and A-2, data were reported as percent inhibition compared with control wells based on the following equation: % inh=1−((FLU−AveLow)/(AveHigh−AveLow)) where FLU=measured Fluorescence, AveLow=average Fluorescence of no enzyme control (n=16), and AveHigh=average Fluorescence of DMSO control (n=16). IC50 values were determined by curve fitting of the standard 4 parameter logistic fitting algorithm included in the Activity Base software package: IDBS XE Designer Model205. Data is fitted using the Levenburg Marquardt algorithm.
row,Structure (SMILES),pIC50
1,"CCn1ccc2cc(C(=O)NC[C@@H](C)c3cc(F)c(N4CCNCC4)cc3F)cnc21 (single isomer, unassigned) [Example 2-1]",6.70 to 7.30
2,"CCn1ccc2cc(C(=O)NC[C@H](C)c3cc(F)c(N4CCNCC4)cc3F)cnc21 (single isomer, unassigned) [Example 2-2]",5.70 to 6.70
3,"CCn1ccc2cc(C(=O)NC[C@H](C)c3cc(F)c(N4CC5CCC(C4)N5)cc3F)cnc21 (single isomer, unassigned) [Example 2-3]",7.30 to 9.00
4,"CCn1ccc2cc(C(=O)NC[C@@H](C)c3cc(F)c(N4CC5CCC(C4)N5)cc3F)cnc21 (single isomer, unassigned) [Example 2-4]",6.70 to 7.30
5,"CCn1ccc2cc(C(=O)NC[C@H](C)c3cc(F)c(N4CC5CCC(C4)N5)cc3F)nnc21 (single isomer, unassigned) [Example 4-2]",6.70 to 7.30
6,"CCn1ccc2cc(C(=O)NC[C@@H](C)c3cc(F)c(N4CC5CCC(C4)N5)cc3F)nnc21 (single isomer, unassigned) [Example 4-3]",6.70 to 7.30
7,"CCn1ccc2cc(C(=O)NCCc3cc(F)c(N4CC5CCC(C4)N5)cc3F)cnc21 [Example 1-1, N-[2-(4-[3,8-diazabicyclo[3.2.1]octan-3-yl]-2,5-difluorophenyl)ethyl]-1-ethyl-1H-pyrrolo[2,3-b]pyridine-5-carboxamide]",7.30 to 9.00
8,"O=C(NCCc1ccc(N2CCNCC2)cc1)c1cnc2[nH]ccc2c1 [Example 1-2, N-(4-(piperazin-1-yl)phenethyl)-1H-pyrrolo[2,3-b]pyridine-5-carboxamide]",5.70 to 6.70
9,"Cn1ccc2cc(C(=O)NCCc3ccc(N4CCNCC4)cc3)cnc21 [Example 1-3, 1-methyl-N-(4-(piperazin-1-yl)phenethyl)-1H-pyrrolo[2,3-b]pyridine-5-carboxamide]",5.70 to 6.70
10,"CCn1ccc2cc(C(=O)NCCc3ccc(N4CCNCC4)cc3)cnc21 [Example 1-4, 1-ethyl-N-(4-(piperazin-1-yl)phenethyl)-1H-pyrrolo[2,3-b]pyridine-5-carboxamide]",7.30 to 9.00
11,"Nc1c(C(=O)NCCc2ccc(N3CCNCC3)cc2)cnc2[nH]ccc12 [Example 1-5, 4-amino-N-(4-(piperazin-1-yl)phenethyl)-1H-pyrrolo[2,3-b]pyridine-5-carboxamide]",5.70 to 6.70
12,"CCn1ccc2cc(C(=O)NCCc3ccc(N4CC5CCC(C4)N5)cc3)cnc21 [Example 1-6, N-(4-(3,8-diazabicyclo[3.2.1]octan-3-yl)phenethyl)-1-ethyl-1H-pyrrolo[2,3-b]pyridine-5-carboxamide]",7.30 to 9.00
13,"CCn1ccc2cc(C(=O)NCCc3cc(F)c(N4CCNCC4)cc3F)cnc21 [Example 1-7, N-(2,5-difluoro-4-(piperazin-1-yl)phenethyl)-1-ethyl-1H-pyrrolo[2,3-b]pyridine-5-carboxamide]",7.30 to 9.00
14,O=C(NCCc1ccc(N2CCNCC2)cc1)c1cnc2c(ccn2CC(F)(F)F)c1 [Example 1-8],7.30 to 9.00
15,"CC(C)(O)Cn1ccc2cc(C(=O)NCCc3cc(F)c(N4CC5CCC(C4)N5)cc3F)cnc21 [Example 1-9, N-(4-(3,8-diazabicyclo[3.2.1]octan-3-yl)-2,5-difluorophenethyl)-1-(2-hydroxy-2-methylpropyl)-1H-pyrrolo[2,3-b]pyridine-5-carboxamide]",5.00 to 5.70
16,"CCn1ccc2cc(C(=O)NCCc3ccc(N4CC5CCC(C4)N5)c(F)c3)cnc21 [Example 1-10, N-(4-(3,8-diazabicyclo[3.2.1]octan-3-yl)-3-fluorophenethyl)-1-ethyl-1H-pyrrolo[2,3-b]pyridine-5-carboxamide]",7.30 to 9.00
17,"CCn1cc(Cl)c2cc(C(=O)NCCc3ccc(N4CCNCC4)cc3)cnc21 [Example 3-1, 3-Chloro-1-ethyl-N-[2-[4-(piperazin-1-yl)phenyl]ethyl]-1H-pyrrolo[2,3-b]pyridine-5-carboxamide]",7.30 to 9.00
18,"O=C(NCCc1ccc(N2CCNCC2)cc1)c1cnc2[nH]cc(Cl)c2c1 [Example 3-2, 3-chloro-N-(4-(piperazin-1-yl)phenethyl)-1H-pyrrolo[2,3-b]pyridine-5-carboxamide]",5.70 to 6.70
19,"CCn1ccc2cc(C(=O)NCCc3cc(F)c(N4CC5CCC(C4)N5)cc3F)nnc21 [Example 4-1, N-[2-(4-[3,8-diazabicyclo[3.2.1]octan-3-yl]-2,5-difluorophenyl)ethyl]-7-ethyl-7H-pyrrolo[2,3-c]pyridazine-3-carboxamide]",7.30 to 9.00
20,"CCn1cc(Cl)c2cc(C(=O)NCCc3cc(F)c(N4CC5CCC(C4)N5)cc3F)nnc21 [Example 4-4, N-(4-(3,8-diazabicyclo[3.2.1]octan-3-yl)-2,5-difluorophenethyl)-5-chloro-7-ethyl-7H-pyrrolo[2,3-c]pyridazine-3-carboxamide]",7.30 to 9.00
